Data published in patent US20260327211A1, “MODULATORS OF A POTASSIUM CHANNEL AND OF TRPV1 CHANNEL AND USES THEREOF” (Bsense Bio Therapeutics Ltd., priority 2023, published 2026).
Values belong to the compound of their own block, whether it stands above or below them.

Legend:
[1] = target: T1, hTRPV1 (Homo sapiens, UniProt Q8NER1); assay: TRPV1 whole-cell electrophysiology, CHO cells expressing hTRPV1 alone; type: cell-based
T1 construct: CDS of NM_080704.4, inserted into the multiple cloning site of pcDNA3.1(+); host or cells: CHO/hKv7.2/3
Description: Extracellular (Bath) solution: The solution was composed of (in mM): NaCl, 140; KCl, 4; CaCl2, 1.8; MgCl2, 1.2; Glucose, 11; HEPES, 5.5. pH was adjusted to 7.3 with NaOH. Osmolarity was adjusted to 310 mOsm with Sucrose.
Intracellular (Pipette) solution: Pipettes were pulled from borosilicate glass (Warner Instrument Corp, USA) with a resistance of 3-7 MΩ and filled with internal solution composed of (in mM): KCl, 130; MgCl2, 1; K ATP, 5; EGTA, 5; HEPES, 10. pH was adjusted to 7.3 with KOH. Osmolarity was adjusted to 290 mOsm with Sucrose. A programmable valve-linked pressurized perfusion system was used to locally apply compounds nearby the cell recorded, in a consistent flow rate of 2-3 ml/min. Data were sampled at 5 kHz and low pass filtered at 2.4 kHz using MultiClamp 700B amplifier with pCLAMP11 software (Molecular Devices, USA).
[…]. A 3-minute time interval was set between sequential Capsaicin injections to allow its washout and cell recovery. All compounds are injected in the vicinity of the cells using the pressurized perfusion system.
The drug current response, when capsaicin (co-applied with test compound) is injected following >3 minutes of pre-incubation with the test compound, is divided by the averaged control currents, obtained when capsaicin is injection alone, before compound incubation and following its washout, to evaluate the drug/control response.

[2] = test system: MIA-OA rats; assay: Dynamic weight bearing in MIA-OA rats; type: in vivo, rat; settings: 100 mg/kg (naproxen 30 mg/kg), 6 hours post-dose
Method: Monosodium iodoacetate-induced osteoarthritis (MIA-OA): The animals were anaesthetized using an Isoflurane+O2 mixture. Then 50 μl of MIA at a concentration of 60 mg/mL was injected into the right knee joint using a 30 G needle. On study days 13 and 14 following MIA injection, the animals' dynamic weight bearing and response to von Frey filaments were measured.
Dynamic Weight Bearing (DWB): DWB study was performed using the DWB2 apparatus (Bioseb, Paris, France). The rats were placed in a transparent cage containing a matrix comprising around 2000 high-precision force sensors embedded in its floor where they were allowed to move freely. The force sensors measured the weight distribution on each of the four paws of the animal in grams. The animal was filmed from above using a high-definition camera, and the video feed was analyzed in real-time during the test using tracking software, allowing a precise analysis of the animal's posture and hind paws identification. Out of 5 minutes of animal behavior recording, a segment of 2 minutes was analyzed. Once the analysis was completed, the software provided the weight distribution of each hind paw as the main readout and the ratio between the injured and intact hind paws was then calculated.

[3] = test system: rats; assay: Rotarod assay (PSPP); type: in vivo, rat; settings: up to 300 mg/kg, male and female, 1-6 hours post-dose
Description: Animals: 50 male and 50 female Sprague Dawley rats from Envigo (Frederick, MD) were used in the study. Male animals were received at body weights between approximately 200-215 grams, and female animals between 175-205 grams. All animals were housed 3 per cage (15.55×13.63×8.39 inches) and acclimated to the vivarium for 6-9 days prior to testing. All cages contained BedO'Cob® bedding with Nylabones® for enrichment. All rats were examined, handled, and weighed prior to initiation of the study to ensure adequate health and suitability. During the study, 12/12 light/dark cycles were maintained. The room temperature was maintained between […] and 23° C. with relative humidity maintained around 50%. Chow (LabDiet 5001, LabDiet, St. Louis, MO, USA) and water were provided ad libitum except where specified below. Testing was performed during the animal's light cycle phase (between 6 am and […]). Body weights were recorded prior to baseline assessment. Latency to fall off the rotating rod was the primary measure of performance.
Training: Each trial on the rotarod was identical, a 5 second ramp from 0-17 RPM followed by a period of constant velocity at 17 RPM for up to 40 seconds, for a total trial time of […].
Animals ran three training trials on Day 1 with a 30 minutes interval between training trials. […] The outcome measured was latency to fall off the rotating rod. […]

[4] = test system: 78 recombinant targets; assay: In-vitro selectivity panel, 78 targets; settings: all 9 modulated targets of 78
Method: A broad panel of 78 recombinant targets was tested for pharmacologic activity in vitro through a variety of functional assays (Eurofins DiscoverX, USA), as part of the National Institute of Neurological Disorders and Stroke (NINDS) Preclinical Screening Platform for Pain (PSPP) program. The biological targets for the in vitro profiling have been selected based on avoiding opioid receptor stimulation and targets known to be associated with adverse events or targeted by drugs of abuse. […] For each test, a reference compound was evaluated at the target of interest as a positive control.
In addition, based on efficacious exposures in vivo, the separation from other targets is still greater than 1000-fold, further supporting the specificity of the compound's MOA.

[5] = test system: Salmonella typhimurium (TA98, TA100, TA1535, TA1537) and Escherichia coli WP2uvrA (pKM101); assay: Mini-Ames assay; type: cell-based; settings: 5 strains, with and without S9
Method: The Mini-Ames assay was performed according to the regulatory guidelines. In brief, 5 strains were selected for testing: Salmonella typhimurium (TA98, TA100, TA1535, TA1537) and Escherichia coli WP2uvrA (pKM101). A standard six-well culture plate with top agar containing 0.6% (w/v) agar and 0.5% (w/v) sodium chloride was supplemented with 0.5 mM D-biotin and 0.5 mM L-histidine for Salmonella typhimurium strains or 0.5 mM D-biotin and 0.5 mM L-tryptophan for Escherichia coli WP2uvrA (pKM101). […] Average number of revertants for each dose group condition was compared to negative control, and cytotoxicity and precipitates were recorded.

T1 sequence (Q8NER1 whole entry): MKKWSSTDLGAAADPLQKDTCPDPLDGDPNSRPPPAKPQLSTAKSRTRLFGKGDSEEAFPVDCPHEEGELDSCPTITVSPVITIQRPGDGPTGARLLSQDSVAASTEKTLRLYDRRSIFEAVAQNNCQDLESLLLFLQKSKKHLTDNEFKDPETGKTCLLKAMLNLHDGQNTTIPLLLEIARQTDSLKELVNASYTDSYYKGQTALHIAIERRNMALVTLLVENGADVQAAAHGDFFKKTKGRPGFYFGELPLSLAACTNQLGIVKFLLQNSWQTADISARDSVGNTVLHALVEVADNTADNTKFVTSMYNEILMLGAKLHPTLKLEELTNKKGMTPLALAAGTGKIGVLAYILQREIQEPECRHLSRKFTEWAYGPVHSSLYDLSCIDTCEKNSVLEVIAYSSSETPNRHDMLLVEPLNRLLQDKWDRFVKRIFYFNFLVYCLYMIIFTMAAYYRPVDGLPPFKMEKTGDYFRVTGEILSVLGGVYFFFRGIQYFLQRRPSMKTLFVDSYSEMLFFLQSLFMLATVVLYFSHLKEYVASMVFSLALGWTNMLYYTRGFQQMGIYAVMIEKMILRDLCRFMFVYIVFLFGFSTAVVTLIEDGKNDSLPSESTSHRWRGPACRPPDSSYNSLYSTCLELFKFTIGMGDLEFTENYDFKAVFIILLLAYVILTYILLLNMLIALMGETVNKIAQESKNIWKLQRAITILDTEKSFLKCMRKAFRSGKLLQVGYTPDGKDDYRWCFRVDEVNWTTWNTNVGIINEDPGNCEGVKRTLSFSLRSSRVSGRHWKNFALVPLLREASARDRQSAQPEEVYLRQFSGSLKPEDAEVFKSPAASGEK

- IC50 [1]: 2000 nM
- TRPV1 inhibition, hTRPV1 alone ([1]; 1.3 μM): partial TRPV1 inhibition
Structure (SMILES): O=C(Cc1cc(-n2cc(Cl)c3cc(Cl)cc(Cl)c32)ccc1F)NCCO [Compound 627]

- IC50 [4]: > 1400 nM
Structure (SMILES): O=C(Cc1cncc(-n2cc(Cl)c3cc(Cl)cc(Cl)c32)c1)N[C@@H]1COC[C@H]1O [Compound 661]
- Reversal of weight bearing changes [2]: 44%
- Rotarod performance [3]: no effects on rotarod performance

Structure (SMILES): O=C(Cc1nccc(-n2cc(Cl)c3cc(Cl)cc(Cl)c32)n1)NC1COCC1O (stereo not shown) [Compound 760]
- Cytotoxic effect in Ames strains [5]: No significant cytotoxic effect
- Reversion rates [5]: did not induce substantial dose-dependent increases in reversion rates
